Source: PubChem BioAssay (NCI)
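In this assay, cells in 96-well plates receive the compound at five concentrations for 48 hours. Endpoints are linearly interpolated between the surrounding concentrations. Here, GI50 denotes the concentration required for 50% inhibition of growth. At the TGI there is no net growth.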

What was measured:
Assay in all cases: NCI anticancer screen, dose series, 48 h
786-0 renal = test system: 786-0 renal
ACHN renal = test system: ACHN renal
HL-60(TB) leukemia = test system: HL-60(TB) leukemia
K-562 leukemia = test system: K-562 leukemia
LOX IMVI melanoma = test system: LOX IMVI melanoma
MALME-3M melanoma = test system: MALME-3M melanoma
SF-268 CNS = test system: SF-268 CNS
SF-295 CNS = test system: SF-295 CNS
SW-620 colon = test system: SW-620 colon
EKVX NSCLC = test system: EKVX NSCLC

| SMILES | TGI (786-0 renal) | TGI (ACHN renal) | TGI (HL-60(TB) leukemia) | TGI (K-562 leukemia) | TGI (LOX IMVI melanoma) | TGI (MALME-3M melanoma) | TGI (SF-268 CNS) | TGI (SF-295 CNS) | TGI (SW-620 colon) | GI50 (786-0 renal) | GI50 (ACHN renal) | GI50 (EKVX NSCLC) | TGI (EKVX NSCLC) | GI50 (K-562 leukemia) | GI50 (LOX IMVI melanoma) | GI50 (MALME-3M melanoma) | GI50 (SF-268 CNS) | GI50 (SF-295 CNS) | GI50 (SW-620 colon) | GI50 (HL-60(TB) leukemia) |
| --- | --- | --- | --- | --- | --- | --- | --- | --- | --- | --- | --- | --- | --- | --- | --- | --- | --- | --- | --- | --- |
| COC1OC(C)C2OC(C)(C)OC2C1OC(C)=O (stereo unspecified) | > 100 µM | > 100 µM | > 100 µM | > 100 µM | > 100 µM | > 100 µM | > 100 µM | > 100 µM | > 100 µM |  |  |  |  |  |  |  |  |  |  |  |
| COc1ccc(N(/C=C/C(=O)C(F)(F)F)CC(=O)c2ccc(Cl)cc2)cc1 | 57.8 µM | 27.6 µM |  | 43.1 µM | 28.8 µM | 37.6 µM | 34.9 µM | 31.7 µM | 41 µM | 20.7 µM | 14.5 µM | 25.3 µM | 63.3 µM | 13.6 µM | 14.3 µM | 16 µM | 16.3 µM | 13.6 µM | 19.2 µM |  |
| CCN(CC)CCn1[nH]c2c3ccc(=O)cc3sc3c(NCCN)ccc1c32 | 8.94 µM | 2.54 µM |  | 1.42 µM | 1.03 µM | 2.73 µM | > 100 µM | 8.07 µM | 4.77 µM |  |  |  | 7.13 µM |  |  |  |  |  |  |  |
| O=c1[nH]c(=O)n(C2CC(O)C(CO)O2)cc1C#Cc1ccc(F)cc1 (stereo unspecified) | > 100 µM | > 100 µM |  | > 100 µM | > 100 µM | > 100 µM | > 100 µM | > 100 µM | > 100 µM |  |  |  | > 100 µM |  |  |  |  |  |  |  |
| COc1ccc(/C=C\c2cc(OC)c(OC)c(OC)c2)cc1OCC(=O)Nc1ccc2nc(C)sc2c1 | > 100 µM | 10.9 µM |  | > 100 µM | 9 µM | 8.29 µM | 36.1 µM | 6.85 µM | 31.9 µM | 7.55 µM | 3.12 µM | 4.05 µM | > 100 µM | 2.19 µM | 2.64 µM | 2.84 µM | 3.61 µM | 2.45 µM | 4.7 µM |  |
| Cc1cc(O)c(/C=N/C(=S)Nc2ccccc2)c(=O)o1 | > 100 µM | > 100 µM | > 100 µM | > 100 µM | > 100 µM |  | > 100 µM | > 100 µM | > 100 µM |  |  |  | > 100 µM |  |  |  |  |  |  |  |
| COc1ccc(C2C=C(c3ccc(Cl)cc3)N=C3SC=C(C)N32)c(Br)c1 (stereo unspecified) | 25.4 µM | 17.4 µM | 51.5 µM | > 100 µM | 7.56 µM | 22.8 µM | 13.1 µM |  | 10.3 µM | 3.57 µM | 3.64 µM |  |  | 4.02 µM | 2.21 µM | 8.31 µM | 3.17 µM |  | 2.85 µM | 3.85 µM |
| Cc1ccc(NC(=O)/C(=N/N(C)C)C(C2OC(=O)c3ccccc32)[N+](=O)[O-])cc1 (stereo unspecified) | > 100 µM | > 100 µM | > 100 µM | > 100 µM | > 100 µM |  | > 100 µM | > 100 µM | > 100 µM |  |  |  |  |  |  |  |  |  |  |  |
| COc1ccc(Nc2nc3cc(N)cc(N)c3nc2-c2ccccc2)cc1OC | 90.3 µM | > 100 µM |  | 71.2 µM | 72.2 µM | 35.7 µM | 47.1 µM | 45.3 µM | 35.9 µM | 23.8 µM | 27.4 µM | 25.6 µM | 71.1 µM | 20.2 µM | 25.8 µM | 15.7 µM | 14.2 µM | 16.9 µM | 15.5 µM |  |
| CNS(=O)(=O)OCC1OC(n2cnc3c(N)ncnc32)C(O)C1O (stereo unspecified) | > 100 µM | > 100 µM |  |  | > 100 µM | > 100 µM | > 100 µM | > 100 µM | > 100 µM | > 100 µM | > 100 µM | > 100 µM | > 100 µM |  | > 100 µM | > 100 µM | > 100 µM | > 100 µM | > 100 µM |  |
| Cn1c(=O)c2[nH]cnc2n(CC(N)=O)c1=O | > 100 µM | > 100 µM |  | > 100 µM |  | > 100 µM | > 100 µM |  | > 100 µM |  |  |  | > 100 µM |  |  |  |  |  |  |  |
| c1ccc(P(=C2c3ccccc3-c3ccccc32)(c2ccccc2)c2ccccc2)cc1 | 34 µM | 9.82 µM | 4.36 µM | 6 µM | 9.38 µM |  | 69 µM | 16.1 µM | 10.4 µM |  |  |  | 61.3 µM |  |  |  |  |  |  |  |
| Cc1cccc(C)c1Nc1nc(C)c(C(=O)CC(=O)C(=O)Nc2c(C(C)C)cccc2C(C)C)s1 | > 100 µM | > 100 µM | > 100 µM | > 100 µM | > 100 µM |  | > 100 µM | > 100 µM | > 100 µM |  |  |  | > 100 µM |  |  |  |  |  |  |  |
| CCCCCCCC(=O)OCC(=O)[C@]1(O)Cc2c(O)c3c(c(O)c2[C@@H](OC2CC(N)C(O)C(C)O2)C1)C(=O)c1c(OC)cccc1C3=O (stereo partly specified) | 1.25 µM |  | 0.221 µM |  |  |  |  | 1.23 µM | 1.15 µM | 0.0622 µM |  | 0.236 µM | 1.58 µM |  |  |  |  | 0.0471 µM | 0.0403 µM | 0.0263 µM |
| O=C(c1ccccc1)n1c(-c2ccccc2)cs/c1=N\S(=O)(=O)c1ccc(N2N=C3c4ccccc4CC3C2c2cccs2)cc1 (stereo unspecified) | 96.7 µM | > 100 µM |  | > 100 µM | > 100 µM |  | > 100 µM | > 100 µM | > 100 µM | 21.8 µM | 43.8 µM | 40.7 µM | > 100 µM | 27.6 µM | 30.7 µM |  | > 100 µM | 37.1 µM | 58.8 µM |  |
